Source: paper PMC10009787 (ACS Medicinal Chemistry Letters, 2023)
Several values for one entry are separate records, joined by “and”; a condition that tells them apart may be missing. Equal values may be shown once. Read-outs that look alike come from different tables or passages of the source.

How the values were obtained:
[1] = biological target: ERBB4 (HER4) (Homo sapiens, UniProt Q15303); assay: SelectScreen kinase profiling; assay type: biochemical; details: average of duplicate
[2] = biological target: CSNK1E (CK1 epsilon) (Homo sapiens, UniProt P49674); assay: SelectScreen kinase profiling; assay type: biochemical; details: average of duplicate
[3] = biological target: EGFR (ErbB1) L858R (Homo sapiens, UniProt P00533, L858R); assay: SelectScreen kinase profiling; assay type: biochemical; details: average of duplicate
[4] = biological target: FGR (Homo sapiens, UniProt P09769); assay: SelectScreen kinase profiling; assay type: biochemical; details: average of duplicate
[5] = biological target: FGFR3 (Homo sapiens, UniProt P22607); assay: SelectScreen kinase profiling; assay type: biochemical; details: average of duplicate
[6] = biological target: T1, BMX (Homo sapiens, UniProt P51813); assay: SelectScreen kinase profiling / Z′-Lyte kinase assay
T1 sequence (P51813 1-675): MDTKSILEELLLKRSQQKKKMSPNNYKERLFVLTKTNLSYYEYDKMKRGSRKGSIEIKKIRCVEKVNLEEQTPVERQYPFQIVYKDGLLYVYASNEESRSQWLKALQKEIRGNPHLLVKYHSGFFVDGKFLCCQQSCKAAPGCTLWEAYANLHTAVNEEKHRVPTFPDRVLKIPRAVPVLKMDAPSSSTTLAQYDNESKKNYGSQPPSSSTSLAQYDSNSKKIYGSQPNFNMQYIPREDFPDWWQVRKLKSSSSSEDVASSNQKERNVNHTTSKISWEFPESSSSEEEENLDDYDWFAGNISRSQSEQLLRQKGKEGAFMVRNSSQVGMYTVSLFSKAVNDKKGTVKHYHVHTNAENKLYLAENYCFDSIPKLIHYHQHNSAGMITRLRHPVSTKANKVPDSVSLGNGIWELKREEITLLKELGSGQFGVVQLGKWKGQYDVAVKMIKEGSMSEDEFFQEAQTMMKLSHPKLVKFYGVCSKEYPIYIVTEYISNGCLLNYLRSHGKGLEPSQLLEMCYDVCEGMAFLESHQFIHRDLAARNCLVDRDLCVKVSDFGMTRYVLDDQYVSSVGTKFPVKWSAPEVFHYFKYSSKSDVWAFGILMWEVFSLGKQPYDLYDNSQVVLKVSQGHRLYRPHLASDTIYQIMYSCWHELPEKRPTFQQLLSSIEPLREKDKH

[7] = biological target: HCK (Homo sapiens, UniProt P08631); assay: as above
[8] = biological target: ABL1 (Homo sapiens, UniProt P00519); assay: SelectScreen kinase profiling; assay type: biochemical; details: average of duplicate
[9] = biological target: BTK (Homo sapiens, UniProt Q06187); assay: AssayQuant kinact/Ki profiling, PhosphoSens CSox-based kinetic assay; assay type: biochemical; set-up: purchased ThermoFisher / Life Technologies SelectScreen PV3363; details: 0.6 nM enzyme, 1000 µM ATP, one step fit
[10] = biological target: FGFR1 (Homo sapiens, UniProt P11362); assay: SelectScreen kinase profiling; assay type: biochemical; details: average of duplicate
[11] = biological target: KDR (VEGFR2) (Homo sapiens, UniProt P35968); assay: SelectScreen kinase profiling; assay type: biochemical; details: average of duplicate
[12] = biological target: CSK (Homo sapiens, UniProt P41240); assay: SelectScreen kinase profiling; assay type: biochemical; details: average of duplicate
[13] = biological target: YES1 (Homo sapiens, UniProt P07947); assay: SelectScreen kinase profiling; assay type: biochemical; details: average of duplicate
[14] = biological target: EGFR (ErbB1) T790M L858R (Homo sapiens, UniProt P00533, L858R/T790M); assay: SelectScreen kinase profiling; assay type: biochemical; details: average of duplicate
[15] = biological target: TNK2 (ACK) (Homo sapiens, UniProt Q07912); assay: SelectScreen kinase profiling; assay type: biochemical; details: average of duplicate
[16] = biological target: RET M918T (Homo sapiens, UniProt P07949, M918T); assay: SelectScreen kinase profiling; assay type: biochemical; details: average of duplicate
[17] = biological target: FLT3 (Homo sapiens, UniProt P36888); assay: SelectScreen kinase profiling; assay type: biochemical; details: average of duplicate
[18] = biological target: LYN B (Homo sapiens, UniProt P07948); assay: SelectScreen kinase profiling; assay type: biochemical; details: average of duplicate

HCK, sequence (P08631 whole entry): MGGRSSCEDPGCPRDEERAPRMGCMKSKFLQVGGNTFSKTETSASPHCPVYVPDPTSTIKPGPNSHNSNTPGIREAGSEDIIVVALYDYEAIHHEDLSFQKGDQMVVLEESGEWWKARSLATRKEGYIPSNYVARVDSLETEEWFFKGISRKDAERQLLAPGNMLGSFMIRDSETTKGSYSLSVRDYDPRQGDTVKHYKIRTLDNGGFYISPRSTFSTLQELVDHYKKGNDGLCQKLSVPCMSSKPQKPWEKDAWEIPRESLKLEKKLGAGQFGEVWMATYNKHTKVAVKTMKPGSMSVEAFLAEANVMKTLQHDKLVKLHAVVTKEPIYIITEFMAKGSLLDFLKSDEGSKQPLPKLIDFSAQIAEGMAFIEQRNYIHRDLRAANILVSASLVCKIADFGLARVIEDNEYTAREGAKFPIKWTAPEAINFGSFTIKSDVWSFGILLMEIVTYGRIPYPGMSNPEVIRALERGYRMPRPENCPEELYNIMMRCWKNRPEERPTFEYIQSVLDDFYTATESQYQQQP
BTK, sequence (Q06187 whole entry): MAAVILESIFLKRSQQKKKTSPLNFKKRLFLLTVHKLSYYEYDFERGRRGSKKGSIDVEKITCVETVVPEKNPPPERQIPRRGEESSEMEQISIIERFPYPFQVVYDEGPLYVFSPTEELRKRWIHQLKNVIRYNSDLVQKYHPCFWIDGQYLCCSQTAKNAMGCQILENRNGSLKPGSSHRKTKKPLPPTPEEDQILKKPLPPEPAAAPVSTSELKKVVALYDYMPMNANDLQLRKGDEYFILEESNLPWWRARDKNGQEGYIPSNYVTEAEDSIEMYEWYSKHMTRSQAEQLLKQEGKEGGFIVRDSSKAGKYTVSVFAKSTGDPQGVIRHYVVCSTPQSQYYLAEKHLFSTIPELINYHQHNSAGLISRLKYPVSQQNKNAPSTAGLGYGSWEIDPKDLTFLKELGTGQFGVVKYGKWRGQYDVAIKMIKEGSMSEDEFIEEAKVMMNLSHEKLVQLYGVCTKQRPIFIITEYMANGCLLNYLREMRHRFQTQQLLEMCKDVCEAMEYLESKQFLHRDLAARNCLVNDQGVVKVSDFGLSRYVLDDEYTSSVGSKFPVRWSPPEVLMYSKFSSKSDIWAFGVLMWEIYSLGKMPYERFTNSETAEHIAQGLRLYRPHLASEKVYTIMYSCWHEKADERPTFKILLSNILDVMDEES
EGFR (ErbB1) T790M L858R, sequence (P00533 25-1210 T790M/L858R): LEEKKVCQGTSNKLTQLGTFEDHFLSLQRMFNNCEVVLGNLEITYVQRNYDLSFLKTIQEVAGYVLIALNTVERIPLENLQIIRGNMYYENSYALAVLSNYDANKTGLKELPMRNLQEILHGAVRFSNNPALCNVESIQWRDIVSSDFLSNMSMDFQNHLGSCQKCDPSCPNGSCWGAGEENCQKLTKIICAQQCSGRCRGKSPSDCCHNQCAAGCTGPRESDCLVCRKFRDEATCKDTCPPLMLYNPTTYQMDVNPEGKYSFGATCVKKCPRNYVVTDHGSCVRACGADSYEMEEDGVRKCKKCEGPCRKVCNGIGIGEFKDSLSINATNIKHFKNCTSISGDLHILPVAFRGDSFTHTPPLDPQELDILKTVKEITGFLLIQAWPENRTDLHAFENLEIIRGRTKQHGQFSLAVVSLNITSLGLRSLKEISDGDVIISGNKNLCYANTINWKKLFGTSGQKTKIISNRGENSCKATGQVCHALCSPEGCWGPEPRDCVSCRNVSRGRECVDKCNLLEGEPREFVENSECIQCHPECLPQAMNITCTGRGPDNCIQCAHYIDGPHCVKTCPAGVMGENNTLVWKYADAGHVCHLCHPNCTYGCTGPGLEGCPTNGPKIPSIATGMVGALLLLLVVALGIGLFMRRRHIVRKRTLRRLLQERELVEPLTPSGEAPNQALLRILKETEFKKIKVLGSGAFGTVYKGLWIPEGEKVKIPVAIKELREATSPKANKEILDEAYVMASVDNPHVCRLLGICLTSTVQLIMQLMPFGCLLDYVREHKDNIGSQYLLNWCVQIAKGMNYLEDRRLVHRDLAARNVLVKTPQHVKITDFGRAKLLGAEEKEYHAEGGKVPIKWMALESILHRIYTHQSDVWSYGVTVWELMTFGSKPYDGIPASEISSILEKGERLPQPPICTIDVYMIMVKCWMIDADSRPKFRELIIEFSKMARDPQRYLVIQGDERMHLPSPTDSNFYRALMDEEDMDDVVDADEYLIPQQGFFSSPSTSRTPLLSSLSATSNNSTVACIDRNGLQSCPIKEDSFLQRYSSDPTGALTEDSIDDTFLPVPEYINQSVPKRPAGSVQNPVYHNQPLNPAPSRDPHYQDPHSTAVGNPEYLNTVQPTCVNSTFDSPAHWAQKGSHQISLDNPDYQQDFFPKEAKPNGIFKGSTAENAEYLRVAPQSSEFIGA
FLT3, sequence (P36888 27-993): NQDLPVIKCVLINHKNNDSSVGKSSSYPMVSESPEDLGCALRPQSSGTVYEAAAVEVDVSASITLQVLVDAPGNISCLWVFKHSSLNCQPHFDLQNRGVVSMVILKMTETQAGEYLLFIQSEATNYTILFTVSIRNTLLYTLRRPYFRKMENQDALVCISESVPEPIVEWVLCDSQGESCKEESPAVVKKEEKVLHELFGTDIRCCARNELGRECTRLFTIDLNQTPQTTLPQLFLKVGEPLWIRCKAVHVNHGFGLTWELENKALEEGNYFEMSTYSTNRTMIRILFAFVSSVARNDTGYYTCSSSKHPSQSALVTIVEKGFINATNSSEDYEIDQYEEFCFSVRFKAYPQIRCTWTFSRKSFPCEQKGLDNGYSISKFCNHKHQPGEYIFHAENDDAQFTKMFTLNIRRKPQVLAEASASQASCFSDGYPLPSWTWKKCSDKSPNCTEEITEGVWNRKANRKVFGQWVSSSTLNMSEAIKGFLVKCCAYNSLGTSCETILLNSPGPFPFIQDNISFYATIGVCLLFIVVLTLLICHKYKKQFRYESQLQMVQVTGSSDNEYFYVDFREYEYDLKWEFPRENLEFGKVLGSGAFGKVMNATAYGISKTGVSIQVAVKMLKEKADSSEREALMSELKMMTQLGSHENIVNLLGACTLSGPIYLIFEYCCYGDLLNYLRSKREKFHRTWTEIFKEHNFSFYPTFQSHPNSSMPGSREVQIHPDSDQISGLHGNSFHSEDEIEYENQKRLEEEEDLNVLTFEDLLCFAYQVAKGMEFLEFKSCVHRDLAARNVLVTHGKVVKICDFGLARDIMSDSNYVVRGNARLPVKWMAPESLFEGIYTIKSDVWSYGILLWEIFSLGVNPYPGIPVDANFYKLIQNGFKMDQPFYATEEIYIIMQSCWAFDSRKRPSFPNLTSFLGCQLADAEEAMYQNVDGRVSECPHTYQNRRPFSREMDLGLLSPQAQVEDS
YES1, sequence (P07947 whole entry): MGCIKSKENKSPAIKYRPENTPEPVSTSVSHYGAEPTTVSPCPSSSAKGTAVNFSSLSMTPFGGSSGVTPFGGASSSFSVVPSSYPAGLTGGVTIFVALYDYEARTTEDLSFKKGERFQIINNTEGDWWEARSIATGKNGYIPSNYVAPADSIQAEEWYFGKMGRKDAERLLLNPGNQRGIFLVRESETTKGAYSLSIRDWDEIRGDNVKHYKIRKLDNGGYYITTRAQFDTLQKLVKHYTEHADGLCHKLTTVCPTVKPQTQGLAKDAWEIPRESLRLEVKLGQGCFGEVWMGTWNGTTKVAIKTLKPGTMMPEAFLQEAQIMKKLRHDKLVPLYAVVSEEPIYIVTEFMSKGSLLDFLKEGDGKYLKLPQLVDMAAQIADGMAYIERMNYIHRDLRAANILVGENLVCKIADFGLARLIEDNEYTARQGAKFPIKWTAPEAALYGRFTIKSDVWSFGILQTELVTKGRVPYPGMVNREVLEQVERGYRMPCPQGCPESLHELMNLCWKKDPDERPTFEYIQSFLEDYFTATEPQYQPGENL
RET M918T, sequence (P07949 658-1114 M918T limits assumed): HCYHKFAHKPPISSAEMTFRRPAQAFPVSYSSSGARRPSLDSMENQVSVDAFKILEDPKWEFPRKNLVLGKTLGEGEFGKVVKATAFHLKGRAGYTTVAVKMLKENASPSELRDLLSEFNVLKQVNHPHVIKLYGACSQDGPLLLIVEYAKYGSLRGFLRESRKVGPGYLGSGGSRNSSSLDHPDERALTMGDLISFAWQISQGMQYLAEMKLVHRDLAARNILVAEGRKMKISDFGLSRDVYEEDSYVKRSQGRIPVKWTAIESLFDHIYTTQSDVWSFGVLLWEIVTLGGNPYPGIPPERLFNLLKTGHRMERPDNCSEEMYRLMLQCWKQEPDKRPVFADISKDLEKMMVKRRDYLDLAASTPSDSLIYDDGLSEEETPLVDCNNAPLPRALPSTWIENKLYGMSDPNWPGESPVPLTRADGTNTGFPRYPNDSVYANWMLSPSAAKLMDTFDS
CSNK1E (CK1 epsilon), sequence (P49674 whole entry): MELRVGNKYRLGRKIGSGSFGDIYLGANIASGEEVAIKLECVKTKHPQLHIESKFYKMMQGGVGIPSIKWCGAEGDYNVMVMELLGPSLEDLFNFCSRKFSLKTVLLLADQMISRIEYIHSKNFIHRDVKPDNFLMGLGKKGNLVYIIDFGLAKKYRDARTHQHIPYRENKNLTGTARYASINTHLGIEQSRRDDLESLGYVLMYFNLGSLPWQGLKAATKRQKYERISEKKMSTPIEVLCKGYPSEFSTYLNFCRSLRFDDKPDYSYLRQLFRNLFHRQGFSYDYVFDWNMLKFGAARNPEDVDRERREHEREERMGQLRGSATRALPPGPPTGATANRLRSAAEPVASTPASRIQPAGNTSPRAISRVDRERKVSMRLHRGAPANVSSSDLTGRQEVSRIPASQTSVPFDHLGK

- inhibition at 1 µM [1]: 93%
- inhibition at 1 µM [2]: 9%
- inhibition at 1 µM [3]: 2%
- inhibition at 1 µM [4]: 53%
- inhibition at 1 µM [5]: 3%
- inhibition at 1 µM [6]: 94%
- IC50 ([6]; BMX IC50, Z′-Lyte, [ATP] Km app, 1 h incubation, duplicate): 5.7 nM and 5.67 nM
- Hillslope ([6]; BMX IC50 curve): 1.56
- inhibition at 0.000495 µM ([6]; read-out: % Inhibition Point 1): 6%
- inhibition at 0.00152 µM ([6]; read-out: % Inhibition Point 1): 16%
- inhibition at 0.00457 µM ([6]; read-out: % Inhibition Point 1): 48%
- inhibition at 0.0137 µM ([6]; read-out: % Inhibition Point 1): 78%
- inhibition at 0.0412 µM ([6]; read-out: % Inhibition Point 1): 94%
- inhibition at 0.123 µM ([6]; read-out: % Inhibition Point 1): 102%
- inhibition at 0.37 µM ([6]; read-out: % Inhibition Point 1): 101%
- inhibition at 1.11 µM ([6]; read-out: % Inhibition Point 1): 98%
- inhibition at 3.33 µM ([6]; read-out: % Inhibition Point 1): 99%
- inhibition at 10 µM ([6]; read-out: % Inhibition Point 1): 98%
- inhibition at 0.000495 µM ([6]; read-out: % Inhibition Point 2): 10%
- inhibition at 0.00152 µM ([6]; read-out: % Inhibition Point 2): 18%
- inhibition at 0.00457 µM ([6]; read-out: % Inhibition Point 2): 42%
- inhibition at 0.0137 µM ([6]; read-out: % Inhibition Point 2): 83%
- inhibition at 0.0412 µM ([6]; read-out: % Inhibition Point 2): 101%
- inhibition at 0.123 µM ([6]; read-out: % Inhibition Point 2): 97%
- inhibition at 0.37 µM ([6]; read-out: % Inhibition Point 2): 98%
- inhibition at 1.11 µM ([6]; read-out: % Inhibition Point 2): 102%
- inhibition at 3.33 µM ([6]; read-out: % Inhibition Point 2): 100%
- inhibition at 10 µM ([6]; read-out: % Inhibition Point 2): 102%
- inhibition at 1 µM [7]: 19%
- HCK, BTK/Kinase ([7]; BTK selectivity from IC50 values): 180 x
- IC50 ([7]; HCK IC50, Z′-Lyte, [ATP] Km app, 1 h incubation, duplicate): 2310 nM
- Hillslope ([7]; HCK IC50 curve): 1.00
- inhibition at 0.000495 µM ([7]; read-out: % Inhibition Point 1): 10%
- inhibition at 0.00152 µM ([7]; read-out: % Inhibition Point 1): 9%
- inhibition at 0.00457 µM ([7]; read-out: % Inhibition Point 1): 10%
- inhibition at 0.0137 µM ([7]; read-out: % Inhibition Point 1): 6%
- inhibition at 0.0412 µM ([7]; read-out: % Inhibition Point 1): 9%
- inhibition at 0.123 µM ([7]; read-out: % Inhibition Point 1): 10%
- inhibition at 0.37 µM ([7]; read-out: % Inhibition Point 1): 19%
- inhibition at 1.11 µM ([7]; read-out: % Inhibition Point 1): 32%
- inhibition at 3.33 µM ([7]; read-out: % Inhibition Point 1): 48%
- inhibition at 10 µM ([7]; read-out: % Inhibition Point 1): 62%
- inhibition at 0.000495 µM ([7]; read-out: % Inhibition Point 2): 7%
- inhibition at 0.00152 µM ([7]; read-out: % Inhibition Point 2): 7%
- inhibition at 0.00457 µM ([7]; read-out: % Inhibition Point 2): 5%
- inhibition at 0.0137 µM ([7]; read-out: % Inhibition Point 2): 10%
- inhibition at 0.0412 µM ([7]; read-out: % Inhibition Point 2): 8%
- inhibition at 0.123 µM ([7]; read-out: % Inhibition Point 2): 15%
- inhibition at 0.37 µM ([7]; read-out: % Inhibition Point 2): 15%
- inhibition at 1.11 µM ([7]; read-out: % Inhibition Point 2): 29%
- inhibition at 3.33 µM ([7]; read-out: % Inhibition Point 2): 49%
- inhibition at 10 µM ([7]; read-out: % Inhibition Point 2): 65%
- inhibition at 1 µM [8]: 0%
- kinact/KI [9]: 31000 M⁻¹ s⁻¹
- BTK kinact/Ki ([9]; listed as Dimethyl Analog): 31,600 M^-1S^-1
- inhibition at 1 µM [10]: -1%
- inhibition at 1 µM [11]: 5%
- inhibition at 1 µM [12]: 15%
- inhibition at 1 µM [13]: 45%
- inhibition at 1 µM [14]: 6%
- inhibition at 1 µM [15]: 4%
- inhibition at 1 µM [16]: 6%
- inhibition at 1 µM [17]: 13%
- inhibition at 1 µM [18]: 28%
Structure (SMILES): C=CC(=O)N1CCCC(n2nc(-c3c(C)cc(Oc4ccccc4)cc3C)c3c(N)ncnc32)C1 (stereo in doubt) [Compound 3]
